Results published in patent US9810690B2, “Method for screening inhibitors of Ras” (Araxes Pharma LLC, priority 2015, dated 2017).

Tests used:
[1] = biological target: T1, KRAS D92C/G12D (Homo sapiens, UniProt P01116, D92C/G12D); test: Covalent modification of KRAS mutant by competition probes (TOF mass spectrometry, Agilent RapidFire); type: binding
T1 construct: made in house
Experimental: (§1) KRAS mutant proteins were produced with one substituted amino acid selected from E62C, D92C, and H95C and with either glycine at the 12 position (WT) or an additional mutation to aspartic acid at the 12 position (G12D) relative to SEQ ID NO: 1 when optimally aligned. These mutations are depicted on an X-ray crystal structure in FIG. 2. These mutants were tested for reactivity (e.g., covalent modification of the KRAS mutant) with a panel of competition probes that bind the Switch II binding pocket and covalently modify the substituted amino acid with appropriately placed electrophiles based on modeling/docking studies. Screening was carried out by time-of-flight (TOF) mass spectrometry on an Agilent RapidFire system. […] Competition probe reactivity with the G12D mutant or other 12 position mutants may be optimized by iterative structural modification and testing.

[2] = biological target: T2, KRAS D92C/WT (Homo sapiens, UniProt P01116, D92C); test: as above; type: binding
T2 construct: made in house
Experimental: as §1

[3] = biological target: T3, KRAS E62C/G12D (Homo sapiens, UniProt P01116, E62C/G12D); test: as above; type: binding
T3 construct: made in house
Experimental: as §1

[4] = biological target: T4, KRAS E62C/WT (Homo sapiens, UniProt P01116, E62C); test: as above; type: binding
T4 construct: made in house
Experimental: as §1

[5] = biological target: T5, KRAS H95C/G12D (Homo sapiens, UniProt P01116, G12D/H95C); test: as above; type: binding
T5 construct: made in house
Experimental: as §1

[6] = biological target: T6, RALA G23C (Homo sapiens, UniProt P11233, G23C); test: Rate constant of covalent reaction of competition probes with RALA mutant (mass spectrometry); type: binding
T6 construct: (residues 11-183, either WT or G23C); hexahistidine (TEV-cleavable); made in house; host or cells: Escherichia coli BL21 (DE)
T6 sequence (P11233 11-183 G23C): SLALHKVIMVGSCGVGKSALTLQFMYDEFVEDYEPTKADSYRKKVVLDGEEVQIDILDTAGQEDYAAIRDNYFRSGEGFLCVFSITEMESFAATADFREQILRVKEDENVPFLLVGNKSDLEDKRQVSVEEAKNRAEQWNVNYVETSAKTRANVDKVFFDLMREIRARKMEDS
Experimental: Hexahistidine-tagged recombinant human RalA (“hexahistidine” disclosed as SEQ ID NO: 49) (residues 11-183, either WT or G23C) was transformed into Escherichia coli (BL21 (DE)). After the bacterial grew to an OD(600) of 0.4-0.6 in Terrific Broth containing 30 mg/L kanamycin at 37° C., induction was carried out at 18° C. using 0.5 mM IPTG and growth was continued at 18° C. for about 18 h. The bacteria were harvested by centrifugation and the obtained pellet was either stored at −80° C. or used freshly for the subsequent steps.
(§2) RALA mutant proteins were produced with one mutation to cysteine at the 23 position (G23C) relative to SEQ ID NO: 8 when optimally aligned. KRAS mutant proteins were produced with one mutation to cysteine at the 12 position (G12C) relative to SEQ ID NO: 1 when optimally aligned. The RALA and KRAS mutants were tested for reactivity (e.g., covalent modification of the mutant) with a panel of competition probes that bind the Switch II binding pocket and covalently modify the substituted amino acid with appropriately placed electrophiles based on modeling/docking studies. One such inhibitor covalently bound to RAS (via G12) is depicted in FIG. 2. Screening was carried out by mass spectrometry on an Agilent RapidFire or ThermoScientific Q Exactive system.

[7] = biological target: T7, KRAS H95C/WT (Homo sapiens, UniProt P01116, H95C); test: Covalent modification of KRAS mutant by competition probes (TOF mass spectrometry, Agilent RapidFire); type: binding
T7 construct: made in house
Experimental: as §1

[8] = biological target: T8, KRAS G12C (Homo sapiens, UniProt P01116, G12C); test: Rate constant of covalent reaction of competition probes with KRAS mutant (mass spectrometry); type: binding
T8 construct: made in house
Experimental: as §2

[9] = biological target: T9, K-Ras D92C (Homo sapiens, UniProt P01116, D92C); test: QQQ mass spectrometry competition assay for K-Ras D92C binding using competition probe CP-008; conditions: CP-008 (100 nM); test compound over a range of concentrations; incubated for 6 h; FIG. 6
T9 construct: made in house
Experimental: The GDP-loaded K-Ras D92C protein (which also contains a histidine tag) was diluted in a HEPES containing assay buffer shortly before use in the QQQ-assay.
To start the assay an internal nonreactive control compound and competition probe compound (CP-008) were added to the protein solution to form a master mix. The master mix was quickly dispersed in a 96-well plate followed by addition a DMSO stock of the compound of interest. […]
To quench the reaction, the reaction mix was transferred to 2% of formic acid in water (0.2% final in the quenched reaction) in a second plate. After sealing the second plate and quick centrifugation the samples were frozen at −80° C.
The frozen samples were sent on dry ice to Pure Honey Technologies for QQQ-quantitation to determine probe and internal control compound amount in each well. For analysis of the obtained data, the ratio of probe to internal control compound was calculated for each well. The assay window was determined by a negative control (DMSO only, no inhibition) and a positive control (100 μM final of CP-008 at a time point where the probe is fully reacted with protein; assigned 100% inhibition) and allowed the calculation of inhibition of probe depletion by the compound of interest.

C=CS(=O)(=O)NC1CCN(c2nc(N3CCN(C(C)=O)CC3)c3cc(Cl)c(-c4c(O)cccc4F)c(F)c3n2)C1 (centres unmarked) [CP-003]
% Covalent Modification with Indicated Protein at 6 hr, D92C/G12D ([1]; probe 30 μM): 8% | % Covalent Modification with Indicated Protein at 6 hr, D92C/WT ([2]; probe 30 μM): 89% | % Covalent Modification with Indicated Protein at 6 hr, E62C/G12D ([3]; probe 30 μM): 11% | % Covalent Modification with Indicated Protein at 6 hr, E62C/WT ([4]; probe 30 μM): 86% | % Covalent Modification with Indicated Protein at 6 hr, H95C/G12D ([5]; probe 30 μM): 12%

C=CC(=O)N1CCN(c2ncnc3cc(Cl)c(-c4ccc(C#N)cc4)cc23)CC1 [CP-016]
Rate Constant for Reaction with Indicated Protein, RALA G23C [6]: 2.6 M⁻¹ s⁻¹

C=CS(=O)(=O)N1CCC(Nc2nc(N3CCN(C(C)=O)CC3)c3cc(Cl)c(-c4c(O)cccc4F)c(F)c3n2)C1 (centres unmarked) [CP-007]
% Covalent Modification with Indicated Protein at 6 hr, D92C/G12D ([1]; probe 10 μM): 29% | % Covalent Modification with Indicated Protein at 6 hr, D92C/WT ([2]; probe 10 μM): 99% | % Covalent Modification with Indicated Protein at 6 hr, E62C/G12D ([3]; probe 10 μM): 19% | % Covalent Modification with Indicated Protein at 6 hr, E62C/WT ([4]; probe 10 μM): 96% | % Covalent Modification with Indicated Protein at 6 hr, H95C/G12D ([5]; probe 10 μM): 17% | % Covalent Modification with Indicated Protein at 6 hr, H95C/WT ([7]; probe 10 μM): 43%

C=CC(=O)N1CCN(c2ncnc3cc(Cl)c(-c4ccccc4)cc23)CC1 [CP-014]
Rate Constant for Reaction with Indicated Protein, RALA G23C [6]: 4.0 M⁻¹ s⁻¹

C=CC(=O)N1CCN(c2ncnc3c(F)c(-c4c(O)cccc4F)c(Cl)cc23)CC1 [CP-012]
Rate Constant for Reaction with Indicated Protein, RALA G23C [6]: <1 M⁻¹ s⁻¹ | Rate Constant for Reaction with Indicated Protein, KRAS G12C [8]: 310 M⁻¹ s⁻¹

C=CC(=O)N1CCN(c2ncnc3cc(Cl)c(-c4cccs4)cc23)CC1 [CP-018]
Rate Constant for Reaction with Indicated Protein, RALA G23C [6]: 17 M⁻¹ s⁻¹

C=CC(=O)N1CCN(C(=O)c2cc(-c3cc(Cl)ccc3Cl)c(Cl)cc2O)CC1 [CP-010]
Rate Constant for Reaction with Indicated Protein, RALA G23C [6]: 2.9 M⁻¹ s⁻¹ | Rate Constant for Reaction with Indicated Protein, KRAS G12C [8]: 2.3 M⁻¹ s⁻¹

C=CC(=O)N1CCN(c2ccc(-c3cc(O)ccc3Cl)cc2C#N)CC1 [CP-009]
Rate Constant for Reaction with Indicated Protein, RALA G23C [6]: <0.2 M⁻¹ s⁻¹ | Rate Constant for Reaction with Indicated Protein, KRAS G12C [8]: 5.8 M⁻¹ s⁻¹

CN(C)CCCOc1nc(N2CCN(C=O)CC2)c2cc(Cl)c(-c3cc(O)cc4ccccc34)c(F)c2n1 [CP-024, 4-(6-chloro-2-(3-(dimethylamino)propoxy)-8-fluoro-7-(3-hydroxynaphthalen-1-yl)quinazolin-4-yl)piperazine-1-carbaldehyde]
inhibition of competition probe (CP-008) depletion by D92C K-Ras [9]: less CP-008 is bound to K-Ras

CC(=O)N1CCN(c2nc(OCCCN(C)C)nc3c(F)c(-c4cc(O)cc5ccccc45)c(Cl)cc23)CC1 [CP-023, 1-(4-(6-chloro-2-(3-(dimethylamino)propoxy)-8-fluoro-7-(3-hydroxynaphthalen-1-yl)quinazolin-4-yl)piperazin-1-yl)ethanone]
inhibition of competition probe (CP-008) depletion by D92C K-Ras [9]: less CP-008 is bound to K-Ras

C=CS(=O)(=O)NC1CCCN(c2nc(N3CCN(C(C)=O)CC3)c3cc(Cl)c(-c4c(O)cccc4F)c(F)c3n2)C1 (centres unmarked) [CP-001]
% Covalent Modification with Indicated Protein at 6 hr, D92C/G12D ([1]; probe 30 μM): 12% | % Covalent Modification with Indicated Protein at 6 hr, D92C/WT ([2]; probe 30 μM): 97% | % Covalent Modification with Indicated Protein at 6 hr, E62C/G12D ([3]; probe 30 μM): 4% | % Covalent Modification with Indicated Protein at 6 hr, E62C/WT ([4]; probe 30 μM): 72% | % Covalent Modification with Indicated Protein at 6 hr, H95C/G12D ([5]; probe 30 μM): 60%

C=CC(=O)N1CCN(c2ncnc3cc(Cl)c(-c4ccc(C)s4)cc23)CC1 [CP-020]
Rate Constant for Reaction with Indicated Protein, RALA G23C [6]: 19 M⁻¹ s⁻¹

C=CC(=O)N1CCN(c2ncnc3cc(Cl)c(-c4ccc(Cl)s4)cc23)CC1 [CP-019]
Rate Constant for Reaction with Indicated Protein, RALA G23C [6]: 6.3 M⁻¹ s⁻¹

C=CC(=O)N1CCN(c2ncnc3cc(Cl)c(-c4ccc(Cl)cc4)cc23)CC1 [CP-013]
Rate Constant for Reaction with Indicated Protein, RALA G23C [6]: 10.2 M⁻¹ s⁻¹

C=CC(=O)NC1CCN(c2nc(N3CCN(C(C)=O)CC3)c3cc(Cl)c(-c4c(O)cccc4F)c(F)c3n2)C1 (centres unmarked) [CP-004]
% Covalent Modification with Indicated Protein at 6 hr, D92C/WT ([2]; probe 100 μM): 4% | % Covalent Modification with Indicated Protein at 6 hr, E62C/G12D ([3]; probe 100 μM): 1% | % Covalent Modification with Indicated Protein at 6 hr, E62C/WT ([4]; probe 100 μM): 3% | % Covalent Modification with Indicated Protein at 6 hr, H95C/G12D ([5]; probe 100 μM): 2%

C=CS(=O)(=O)N1CCC(Nc2nc(N3CCN(C(C)=O)CC3)c3cc(Cl)c(-c4c(O)cccc4F)c(F)c3n2)CC1 [CP-005]
% Covalent Modification with Indicated Protein at 6 hr, D92C/G12D ([1]; probe 30 μM): 11% | % Covalent Modification with Indicated Protein at 6 hr, D92C/WT ([2]; probe 30 μM): 28% | % Covalent Modification with Indicated Protein at 6 hr, E62C/G12D ([3]; probe 30 μM): 6% | % Covalent Modification with Indicated Protein at 6 hr, E62C/WT ([4]; probe 30 μM): 82% | % Covalent Modification with Indicated Protein at 6 hr, H95C/G12D ([5]; probe 30 μM): 12% | % Covalent Modification with Indicated Protein at 6 hr, H95C/WT ([7]; probe 30 μM): 21%

C=CC(=O)N1CCN(c2ncnc3cc(Cl)c(-c4ccc(Br)cc4)cc23)CC1 [CP-015]
Rate Constant for Reaction with Indicated Protein, RALA G23C [6]: 9.0 M⁻¹ s⁻¹

C=CC(=O)N1CCN(c2ncnc3cc(Cl)c(-c4ccc(O)cc4)cc23)CC1 [CP-017]
Rate Constant for Reaction with Indicated Protein, RALA G23C [6]: 6.0 M⁻¹ s⁻¹

C=CC(=O)N1CCC(Nc2nc(N3CCN(C(C)=O)CC3)c3cc(Cl)c(-c4c(O)cccc4F)c(F)c3n2)C1 (centres unmarked) [CP-006]
% Covalent Modification with Indicated Protein at 6 hr, D92C/G12D ([1]; probe 30 μM): 5% | % Covalent Modification with Indicated Protein at 6 hr, D92C/WT ([2]; probe 30 μM): 93% | % Covalent Modification with Indicated Protein at 6 hr, E62C/G12D ([3]; probe 30 μM): 2% | % Covalent Modification with Indicated Protein at 6 hr, E62C/WT ([4]; probe 30 μM): 14% | % Covalent Modification with Indicated Protein at 6 hr, H95C/G12D ([5]; probe 30 μM): 4% | % Covalent Modification with Indicated Protein at 6 hr, H95C/WT ([7]; probe 30 μM): 19%

C=CC(=O)NC1CCCN(c2nc(N3CCN(C(C)=O)CC3)c3cc(Cl)c(-c4c(O)cccc4F)c(F)c3n2)C1 (centres unmarked) [CP-002]
% Covalent Modification with Indicated Protein at 6 hr, D92C/WT ([2]; probe 100 μM): 2% | % Covalent Modification with Indicated Protein at 6 hr, E62C/G12D ([3]; probe 100 μM): 1% | % Covalent Modification with Indicated Protein at 6 hr, E62C/WT ([4]; probe 100 μM): 6% | % Covalent Modification with Indicated Protein at 6 hr, H95C/G12D ([5]; probe 100 μM): 5%

C=CC(=O)N1CCN(c2ncnc3cc(Cl)c(-c4ccccc4Cl)cc23)CC1 [CP-011]
Rate Constant for Reaction with Indicated Protein, RALA G23C [6]: 5.0 M⁻¹ s⁻¹ | Rate Constant for Reaction with Indicated Protein, KRAS G12C [8]: 1.1 M⁻¹ s⁻¹

C=CC(=O)N1CC(N2CCN(C(=O)CNc3cc(C4(C)CC4)c(Cl)cc3O)CC2)C1 [CP-008]
Rate Constant for Reaction with Indicated Protein, RALA G23C [6]: <0.2 M⁻¹ s⁻¹ | Rate Constant for Reaction with Indicated Protein, KRAS G12C [8]: 76 M⁻¹ s⁻¹
